Data reported in ChEMBL document CHEMBL3351364 (J Med Chem, 2014).

Tests used:
[1] = Oral bioavailability in beagle dog at 2.3 mg/kg; type: ADME, organism-based, Canis lupus familiaris; conditions: in vivo
[2] = Oral bioavailability in Sprague-Dawley rat at 5 mg/kg; type: ADME, organism-based; conditions: in vivo
[3] = Lipophilicity, log P of the compound; type: physicochemical; conditions: octanol/water
[4] = tested on: Hepatitis C virus; test: Antiviral activity against HCV genotype 1b infected in human Huh7 cells after 3 days by cell-based replicon assay; type: functional, Hepacivirus hominis; conditions: Huh-7, 72 h
[5] = Half life in Sprague-Dawley rat at 3 mg/kg, po; type: ADME, organism-based; set-up: dose 3 mg/kg, route oral; conditions: in vivo
[6] = Cmax in Sprague-Dawley rat at 3 mg/kg, po; type: ADME, organism-based; set-up: dose 3 mg/kg, route oral; conditions: in vivo
[7] = Half life in monkey at 3 mg/kg, po; type: ADME, organism-based, Macaca mulatta; set-up: dose 3 mg/kg, route oral; conditions: rhesus monkey, in vivo
[8] = Cmax in monkey at 3 mg/kg, po; type: ADME, organism-based, Macaca mulatta; set-up: dose 3 mg/kg, route oral; conditions: rhesus monkey, in vivo
[9] = Cytotoxicity against human HuH7 cells; type: cell-based, Huh-7
[10] = tested on: Hepatitis C virus; test: Antiviral activity against HCV genotype 1b infected in human Huh7 cells after 3 days by cell-based replicon assay in presence of 10% fetal bovine serum; type: functional, Hepacivirus hominis; conditions: Huh-7, 72 h
[11] = tested on: Hepatitis C virus; test: Antiviral activity against HCV genotype 1b infected in human Huh7 cells after 3 days by cell-based replicon assay in presence of 40% normal human serum; type: functional, Hepacivirus hominis; conditions: Huh-7, 72 h
[12] = Half life in monkey at 1 mg/kg, iv as 30 mins infusion; type: ADME, organism-based, Macaca mulatta; set-up: dose 1 mg/kg, route intravenous; conditions: rhesus monkey, in vivo
[13] = Oral bioavailability in beagle dog at 2 mg/kg; type: ADME, organism-based, Canis lupus familiaris; conditions: in vivo
[14] = Half life in beagle dog at 1 mg/kg, iv as 30 mins infusion; type: ADME, organism-based, Canis lupus familiaris; set-up: dose 1 mg/kg, route intravenous; conditions: in vivo
[15] = Half life in Sprague-Dawley rat at 5 mg/kg, iv as 30 mins infusion; type: ADME, organism-based; set-up: dose 5 mg/kg, route intravenous; conditions: in vivo
[16] = Oral bioavailability in Sprague-Dawley rat at 30 mg/kg; type: ADME, organism-based; conditions: in vivo
[17] = Oral bioavailability in beagle dog at 1 mg/kg; type: ADME, organism-based, Canis lupus familiaris; conditions: in vivo
[18] = Half life in Sprague-Dawley rat at 1 mg/kg, iv as 30 mins infusion; type: ADME, organism-based; set-up: dose 1 mg/kg, route intravenous; conditions: in vivo
[19] = Oral bioavailability in monkey at 5 mg/kg; type: ADME, organism-based, Macaca mulatta; conditions: rhesus monkey, in vivo
[20] = Oral bioavailability in Sprague-Dawley rat at 2 mg/kg; type: ADME, organism-based; conditions: in vivo
[21] = Cmax in monkey at 5 mg/kg, po; type: ADME, organism-based, Macaca mulatta; set-up: dose 5 mg/kg, route oral; conditions: rhesus monkey, in vivo
[22] = Oral bioavailability in beagle dog at 2.5 mg/kg; type: ADME, organism-based, Canis lupus familiaris; conditions: in vivo
[23] = Cmax in monkey at 2.5 mg/kg, po; type: ADME, organism-based, Macaca mulatta; set-up: dose 2.5 mg/kg, route oral; conditions: rhesus monkey, in vivo
[24] = Half life in monkey at 2.5 mg/kg, po; type: ADME, organism-based, Macaca mulatta; set-up: dose 2.5 mg/kg, route oral; conditions: rhesus monkey, in vivo
[25] = Oral bioavailability in monkey at 2.5 mg/kg; type: ADME, organism-based, Macaca mulatta; conditions: rhesus monkey, in vivo
[26] = Oral bioavailability in Sprague-Dawley rat at 1 mg/kg; type: ADME, organism-based; conditions: in vivo
[27] = Cmax in beagle dog at 2.5 mg/kg, po; type: ADME, organism-based, Canis lupus familiaris; set-up: dose 2.5 mg/kg, route oral; conditions: in vivo
[28] = Half life in beagle dog at 2.5 mg/kg, po; type: ADME, organism-based, Canis lupus familiaris; set-up: dose 2.5 mg/kg, route oral; conditions: in vivo

SMILES: COC(=O)N[C@H](C(=O)N1CCC[C@H]1c1ncc(-c2ccc(-c3ccc(-c4cnc([C@@H]5CCCN5C(=O)[C@@H](NC(=O)OC)C(C)C)[nH]4)cc3)cc2)[nH]1)C(C)C
- bioavailability [1]: 58.5%
- bioavailability [2]: 50%
- logP [3]: 6.33
- EC50 [4]: 0.003 nM
- half-life [5]: 1.5 h
- Cmax [6]: 728 nM
- half-life [7]: 3 h
- Cmax [8]: 500 nM

SMILES: COC(=O)N[C@H](C(=O)N1CCCC1c1ncc(C#CC#Cc2ccc(-c3cnc(C4CCCN4C(=O)[C@@H](NC(=O)OC)C(C)C)[nH]3)cc2)[nH]1)C(C)C (single isomer, unassigned; 13j)
- CC50 [9]: 59700 nM
- EC50 [10]: 8880 nM
- EC50 [11]: 6900 nM

SMILES: COC(=O)N[C@@H](C(=O)N1CCC[C@H]1c1ncc(-c2ccc3c(c2)O[C@@H](c2ccccc2)n2c-3cc3cc(-c4cnc([C@@H]5CCCN5C(=O)[C@H](NC(=O)OC)C(C)C)[nH]4)ccc32)[nH]1)C(C)C
- half-life [12]: 16 h
- bioavailability [13]: 35%
- half-life [14]: 4.7 h
- half-life [15]: 4.2 h
- logP [3]: 8.61
- EC50 [4]: 0.003 nM
- bioavailability [16]: 9%

SMILES: COC(=O)N[C@H](C(=O)N1CCC[C@H]1c1ncc(-c2ccc(-c3ccc(-c4cnc([C@@H]5CC6(CN5C(=O)[C@@H](NC(=O)OC)C(C)C)OCCO6)[nH]4)cc3)cc2)[nH]1)C(C)C
- EC50 [4]: 0.0074 nM

SMILES: COC(=O)N[C@@H](C(=O)N1CCCC1c1ncc(C#CC#Cc2ccc(-c3cnc(C4CCCN4C(=O)[C@H](NC(=O)OC)C(C)C)[nH]3)cc2)[nH]1)C(C)C (single isomer, unassigned; 13b)
- CC50 [9]: 298000 nM
- EC50 [10]: 47 nM
- EC50 [11]: 137 nM

SMILES: COC(=O)N[C@H](C(=O)N1CCCC1c1ncc(C#CC#Cc2ccc(-c3cnc(C4CCCN4C(=O)[C@@H](NC(=O)OC)C(C)C)[nH]3)cc2)[nH]1)C(C)C (single isomer, unassigned; 13i)
- CC50 [9]: 34700 nM
- EC50 [10]: 5.37 nM
- EC50 [11]: 36.1 nM

SMILES: c1cc2oc(-c3ccc(-c4ncc([C@@H]5CCCN5)[nH]4)cc3)cc2cc1-c1cnc([C@@H]2CCCN2)[nH]1
- half-life [12]: 3 h
- half-life [14]: 7.7 h
- bioavailability [17]: 108%
- half-life [18]: 2 h
- bioavailability [19]: 12%
- bioavailability [20]: 38%
- Cmax [21]: 180 nM

SMILES: CN(C)[C@@H](C(=O)N1CCC[C@H]1c1nc2cc(-c3cnc(-c4ccc5[nH]c([C@@H]6CCCN6C(=O)[C@@H](c6ccccc6)N(C)C)nc5c4)o3)ccc2[nH]1)c1ccccc1
- EC50 [4]: < 4.6 nM

SMILES: COC(=O)N[C@@H](C(=O)N1CCCC1c1ncc(C#CC#Cc2ccc(-c3cnc(C4CCCN4C(=O)[C@H](NC(=O)OC)C(C)C)[nH]3)cc2)[nH]1)C(C)C (single isomer, unassigned; 13k)
- CC50 [9]: 108000 nM
- EC50 [10]: 994 nM
- EC50 [11]: 7440 nM

SMILES: COC(=O)N[C@@H](C(=O)N1CCC[C@H]1c1ncc(-c2ccc(C#CC#Cc3ccc(-c4cnc([C@@H]5CCCN5C(=O)[C@H](NC(=O)OC)C(C)C)[nH]4)cc3)cc2)[nH]1)C(C)C
- EC50 [4]: 0.384 nM

SMILES: COC(=O)N[C@@H](C(=O)N1CCC[C@H]1c1ncc(C#CC#Cc2cnc([C@@H]3CCCN3C(=O)[C@H](NC(=O)OC)C(C)C)[nH]2)[nH]1)C(C)C
- EC50 [4]: 1.33 nM

SMILES: COC(=O)N[C@H](C(=O)N1CCC[C@@H]1c1ncc(-c2ccc(C#CC#Cc3cnc([C@H]4CCCN4C(=O)[C@H](NC(=O)OC)C(C)C)[nH]3)cc2)[nH]1)C(C)C
- CC50 [9]: 30300 nM
- EC50 [10]: 0.409 nM
- EC50 [11]: 0.737 nM

SMILES: COC(=O)N[C@@H](C(=O)N1CCC[C@H]1C(=O)Nc1ccc([C@H]2CC[C@@H](c3ccc(NC(=O)[C@@H]4CCCN4C(=O)[C@H](NC(=O)OC)C(C)C)cc3)N2c2ccc(C(C)(C)C)cc2)cc1)C(C)C
- bioavailability [22]: 57%
- Cmax [23]: 320 nM
- half-life [24]: 5 h
- bioavailability [25]: 35%
- EC50 [4]: 0.005 nM
- half-life [5]: 15.9 h
- bioavailability [26]: 6.2%
- Cmax [27]: 720 nM
- Cmax [6]: 3360 nM
- half-life [28]: 7.3 h

SMILES: COC(=O)N[C@@H](C(=O)N1CCC[C@H]1c1nc2ccc(C#Cc3ccc4nc([C@@H]5CCCN5C(=O)[C@H](NC(=O)OC)C(C)C)[nH]c4c3)cc2[nH]1)C(C)C
- EC50 [4]: 0.055 nM

SMILES: COC(=O)N[C@H](C(=O)N1CCC[C@H]1c1ncc(-c2ccc(-c3csc4c(-c5ccc6[nH]c([C@@H]7CCCN7C(=O)[C@H](NC(=O)OC)c7ccccc7)nc6c5)csc34)cc2)[nH]1)C(C)C
- EC50 [4]: 0.003 nM

SMILES: COC(=O)N[C@H](C(=O)N1CCC[C@@H]1c1ncc(C#CC#Cc2ccc(-c3cnc([C@H]4CCCN4C(=O)[C@H](NC(=O)OC)C(C)C)[nH]3)cc2)[nH]1)C(C)C (single isomer, unassigned)
- CC50 [9]: 24700 nM
- EC50 [10]: 0.079 nM
- EC50 [11]: 0.243 nM

SMILES: COC(=O)N[C@@H](C(=O)N1CCC[C@H]1c1nc2ccc(C#CC#Cc3ccc4nc([C@@H]5CCCN5C(=O)[C@H](NC(=O)OC)C(C)C)[nH]c4c3)cc2[nH]1)C(C)C
- EC50 [4]: 0.009 nM
